From publication PMC10051798, “Thiosemicarbazide Derivatives Targeting Human TopoIIα and IDO-1 as Small-Molecule Drug Candidates for Breast Cancer Treatment” (International Journal of Molecular Sciences, 2023)
≈ marks a conversion by molar mass, not a printed value. Where “and” joins values, the source holds several entries; their conditions need not be identical. Equal values may be shown once. One block for each compound: values may come before it.

Tests used:
[1] = biological target: recombinant CYP2D6 (Homo sapiens, UniProt P10635); experiment: Vivid CYP2D6 Cyan screening kit; conditions: 10 µM, positive control
Method: According to these assays, the examined compounds are analyzed by their ability to inhibit the production of a fluorescent signal in the reaction between recombinant CYP3A4 or CYP2D6 isozymes and specific Vivid substrates. The experiments were performed in the endpoint mode of the assay, in which solutions of examined compounds were first combined with the Master Pre-mix. After a short incubation, the background fluorescence of the Master Pre-mix and the examined compounds was measured. Next, a mix of the respective Vivid substrate and NADP^+ was added in order to initiate the enzymatic reaction. After 20 min of incubation, the reaction was terminated using a stop solution and the fluorescence was measured using the recommended (by the manufacturer) excitation and emission wavelengths. […] A reaction mixture without tested compounds was used as a negative control and its fluorescence was designated as 100%. The experiments were run in triplicate and the results were presented as means ± SD.

[2] = test system: MCF-10A cells; experiment: MTT viability assay, normal breast epithelial cells; type: cell-based, human
Method: Human breast cancer cells, i.e., MCF-7 (estrogen-dependent breast cancer cells) and MDA-MB-231 (estrogen-independent breast cancer cells), as well as normal human breast epithelial cells (MCF-10A) were purchased from the American Type Culture Collection (ATCC, Manassas, VA, USA). MCF-7 and MDA-MB-231 cells were cultured in DMEM (Sigma Aldrich, St. Louis, MO, USA) supplemented with 10% fetal bovine serum (FBS), penicillin (100 U/mL) and streptomycin (100 μg/mL). MCF-10A cells were cultured in Mammary Epithelial Cell Growth Medium supplemented with BPE, hEGF, insulin, hydrocortisone, GA-1000 (Lonza, Basel, Switzerland), 10% fetal bovine serum (FBS), penicillin (100 U/mL) and streptomycin (100 μg/mL). The cells were grown in T25 Cell Culture EasyFlask (Nunc, Roskilde, Denmark) at 37 °C in a humidified atmosphere of 5% CO2.
MTT assays were performed to evaluate the cytotoxic activity of the investigated compounds (1–3) against MCF-10A cells. Asuspension of cells (1 × 10^5 cells/mL) was distributed onto 96-well plates at a volume of 100 μL/well. After attachment, the cells were treated with increased concentrations of the tested compounds in medium containing 2% FBS, and incubated for 24 h. Then, 15 μL of MTT working solution (5 mg/mL in PBS) was added to each well and the plates were incubated for 3 h. Subsequently, 100 μL of 10% SDS solution was added to each well in order to dissolve the formazan formed. After overnight incubation at 37 °C, the absorbance of the obtained solution was measured at λ= 570 nm using a microplate reader (Epoch, BioTek Instruments, Inc., Winooski, VT, USA). At least two independent experiments were performed in triplicate. IC50 values of the tested compounds were calculated using the IC50 online calculator [27].

[3] = test system: MCF-7 cells; experiment: Autophagy Assay (Red kit) flow cytometry, MCF-7; type: cell-based, human; conditions: 24 h
Method: (§1) In order to evaluate the number of autophagosomes and autolysosomes in breast cancer cells incubated with the investigated compounds, anAutophagy Assay (Red kit) was performed (ImmunoChemistry Technologies, Bloomington, MN, USA). In short, the unfixed cells were washed and resuspended in PBS with the added autophagy probe, Red solution. Next, the cells were incubated for 30 min at 37 °C in the dark, washed, resuspended in cellular assay buffer and the provided fixative was added at a volume/volume ratio of 1:5. The samples were measured immediately after preparation by flow cytometry using the BD FACSCanto II system (BD Biosciences Systems, San Diego, CA, USA). The percentage of cells with autophagy was calculated using FACSDiva software (version 6.1.3, BD Biosciences Systems, San Diego, CA, USA).

[4] = test system: MDA-MB-231 cells; set-up: method as in PMID 36345785; conditions: MTT; cited from earlier work
[5] = test system: MCF-7 cells; experiment: Cell cycle analysis (PI flow cytometry), MCF-7; type: cell-based, human; conditions: MCF-7, 20 µg/mL, 24 h
Method: Cell cycle analyses of MCF-7 and MDA-MB-231 cells treated with compounds 1–3 and etoposide for 24 h were performed using a FACSCanto II flow cytometer (BD Bioscences Systems, San Diego, CA, USA). After incubation, breast cancer cells were trypsinized and fixed with cold ethanol (70%) and stored overnight at −20 °C. After removing ethanol, the cells were washed three times with PBS, treated with 50 μg/mL of DNase-free RNase A Solution (Promega, Madison, WI, USA) and stained with 100 μg/mL of PI. The results of measurements were analyzed using FCS Express 7 software (De Novo Software, Pasadena, CA, USA).

[6] = test system: MDA-MB-231 cells; experiment: Autophagy Assay (Red kit) flow cytometry, MDA-MB-231; type: cell-based, human; conditions: 24 h
Method: as §1

[7] = test system: MCF-7 cells; set-up: method as in PMID 36345785; conditions: BrdU assay; cited from earlier work
[8] = test system: MCF-7 cells; set-up: method as in PMID 36345785; conditions: MTT; cited from earlier work
[9] = biological target: T1, MDR1 (p-glycoprotein) in MDA-MB-231 cells (Homo sapiens, UniProt P08183); experiment: MDR transporter activity assay, MDR1 in MDA-MB-231; type: cell-based; conditions: MDA-MB-231, 20 µg/mL, 24 h
T1 construct: endogenous in cells; host or cells: MCF-7 and MDA-MB-231 cells
Method: An MDR Assay kit (Abcam, Cambridge, UK) was used following the manufacturer’s instructions. MCF-7 and MDA-MB-231 cells were incubated with compounds 1–3 (10 μg/mL and 20 μg/mL). After 24 h of incubation, the test cells were washed twice with 5 mL of PBS by centrifugation at 1200 rpm for 10 min. The supernatants were discarded and the cells were counted using a Scepter 3.0 handheld automated cell counter (Milipore, Burlington, MA, USA). Then, each of the tested samples was divided into three parts and analyzed. Tomeasure the activity of MDR1, MRP1 and BCRP (tubes 1–12), 5 μL of verapamil (MDR1 inhibitor) was added into tubes 1–3, 5 μL of MK-571 (MRP1 inhibitor) was added into tubes 4–6, 5 μL of noviobiocin (BCRP inhibitor) was added into tubes 7–9 and 125 μL DMEM with 1 μL of DMSO was added into tubes 10–12. Then, the samples were incubated at 37 °C for five minutes. After this time, 125 μL of Efflux Green Detection Reagent was added into tubes 1–12 and the samples were incubated for 30 min at 37 °C. After 25 min of incubation, 5 μL of PI was added to each tube. Thereafter, the samples were centrifuged for 10 min at 1200 rpm. The supernatants were discarded and the cells were resuspended in 500 μL of PBS and run on the flow cytometer immediately. Measurements were conducted on a BD FACSCanto II flow cytometer using FACSDiva software (version 6.1.3, BD Biosciences, San Diego, CA, USA). […] The calculations followed these formulas:MAFMDR1= 100 × (FMDR1 − F0)/FMDR1 MAFMRP= 100 × (FMRP − F0)/FMRP MAFBCRP= 100 × (FBCRP − F0)/FBCRP
• FMDR—MFI with MDR1 inhibitor (verapamil) • FMRP—MFI with MRP inhibitor (MK-571) • FBCRP—MFI with BCRP inhibitor (novobiocin) • F0—MFI without inhibitor
The theoretical range of the MAF values is between 0 and 100.

[10] = test system: MDA-MB-231 cells; experiment: Annexin V/propidium iodide flow cytometry (apoptosis), MDA-MB-231; type: cell-based, human; conditions: MDA-MB-231, 20 µg/mL, 24 h
Description: (§2) Flow cytometry analyses for apoptosis induction by the compounds 1–3 and etoposide wereperformedusing an FITC Annexin V Apoptosis Detection Kit II (BD Pharmingen, San Diego, CA, USA). The rationale of the assay is based on the externalization of phosphatidylserine on the surface of apoptotic cells. In early and late apoptotic cells, the phosphatidylserine translocates into the outer layer of the membrane, which allows annexin V-FITC to attach. Propidium iodide (PI) is, in turn, a fluorescent dye that penetrates into the late apoptotic and necrotic cells with impaired cell membrane integrity. Therefore, using annexin V and PI, it is possible to distinguish four groups of cells: living cells, early apoptotic cells, late apoptotic cells and necrotic cells. MCF-7 and MDA-MB-231 cells were incubated with 10 and 20 µg/mL of compounds 1–3 and etoposide (reference drug) for 24 h. After incubation, the cells were dyed with FITC-labeled annexin V and PI. The analysis was performed on a BD FACS Canto II flow cytometer using FACSDiva software (version 6.1.3, BD Biosciences Systems, San Diego, CA, USA). The equipment was calibrated with BD Cytometer Setup and Tracking Beads (BDBiosciences, San Diego, CA, USA).

[11] = test system: caspase-8 in MCF-7 cells; experiment: FLICA caspase-8 activity flow cytometry, MCF-7; type: cell-based, human; conditions: MCF-7, 20 µg/mL, 24 h
Method: (§3) Caspase-8 and caspase-9 activitiesweremeasured using the FLICA Caspase-8 Assay Kit and FLICA Caspase-9 Assay Kit (ImmunoChemistry Technologies, Bloomington, MN, USA), respectively, according to the manufacturer’s protocol. In brief, MCF-7 and MDA-MB-231 breast cancer cells (1 × 10^6) were washed with cold PBS twice and re-suspended in buffer. Then, 5 μL of diluted FLICA reagent and 2 μL of Hoechst 33,342 were added to 93 μL of cell suspension, mixed by pipetting and incubated for 60 min at 37 °C. After incubation, the cells were washed twice with 400 μL of apoptosis wash buffer and centrifuged at 300× g. After the last wash, the cells were resuspended in 100 μL of apoptosis wash buffer supplemented with 10 μg/mL of PI. Analyses were performed using aBD FACSCanto II flow cytometer, and the results were analyzed with FACSDiva software (version 6.1.3, BD BiosciencesSystems, San Diego, CA, USA). To identify the involvement of caspases in apoptosis induced by compounds 1–3, the investigated breast cancer cells were pretreated with the pan-caspase inhibitor, Z-VAD-FMK (100 µM) (Sigma Aldrich, St. Louis, MO, USA), as described in [28]. The activation of caspases-8 and -9 was detected as described above.

[12] = test system: MCF-7 cells; experiment: Annexin V/propidium iodide flow cytometry (apoptosis), MCF-7; type: cell-based, human; conditions: MCF-7, 20 µg/mL, 24 h
Description: as §2

[13] = test system: caspase-8 in MDA-MB-231 cells; experiment: FLICA caspase-8 activity flow cytometry, MDA-MB-231; type: cell-based, human; conditions: MDA-MB-231, 20 µg/mL, 24 h
Method: as §3

Sequence of recombinant CYP2D6 (P10635 whole entry): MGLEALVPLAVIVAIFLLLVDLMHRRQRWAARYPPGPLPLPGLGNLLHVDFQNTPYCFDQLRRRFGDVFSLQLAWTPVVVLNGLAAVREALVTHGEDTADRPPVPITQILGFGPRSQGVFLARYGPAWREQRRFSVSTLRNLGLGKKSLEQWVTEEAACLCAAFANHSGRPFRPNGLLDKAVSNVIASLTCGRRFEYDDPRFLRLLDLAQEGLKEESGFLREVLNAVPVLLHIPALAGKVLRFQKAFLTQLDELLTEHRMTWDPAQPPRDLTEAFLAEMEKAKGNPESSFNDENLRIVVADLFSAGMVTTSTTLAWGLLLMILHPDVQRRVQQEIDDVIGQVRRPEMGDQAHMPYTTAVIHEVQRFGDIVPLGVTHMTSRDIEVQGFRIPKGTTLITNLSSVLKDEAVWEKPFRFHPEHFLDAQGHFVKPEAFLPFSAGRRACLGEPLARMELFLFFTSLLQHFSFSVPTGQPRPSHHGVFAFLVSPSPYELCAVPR
T1 sequence (P08183 whole entry): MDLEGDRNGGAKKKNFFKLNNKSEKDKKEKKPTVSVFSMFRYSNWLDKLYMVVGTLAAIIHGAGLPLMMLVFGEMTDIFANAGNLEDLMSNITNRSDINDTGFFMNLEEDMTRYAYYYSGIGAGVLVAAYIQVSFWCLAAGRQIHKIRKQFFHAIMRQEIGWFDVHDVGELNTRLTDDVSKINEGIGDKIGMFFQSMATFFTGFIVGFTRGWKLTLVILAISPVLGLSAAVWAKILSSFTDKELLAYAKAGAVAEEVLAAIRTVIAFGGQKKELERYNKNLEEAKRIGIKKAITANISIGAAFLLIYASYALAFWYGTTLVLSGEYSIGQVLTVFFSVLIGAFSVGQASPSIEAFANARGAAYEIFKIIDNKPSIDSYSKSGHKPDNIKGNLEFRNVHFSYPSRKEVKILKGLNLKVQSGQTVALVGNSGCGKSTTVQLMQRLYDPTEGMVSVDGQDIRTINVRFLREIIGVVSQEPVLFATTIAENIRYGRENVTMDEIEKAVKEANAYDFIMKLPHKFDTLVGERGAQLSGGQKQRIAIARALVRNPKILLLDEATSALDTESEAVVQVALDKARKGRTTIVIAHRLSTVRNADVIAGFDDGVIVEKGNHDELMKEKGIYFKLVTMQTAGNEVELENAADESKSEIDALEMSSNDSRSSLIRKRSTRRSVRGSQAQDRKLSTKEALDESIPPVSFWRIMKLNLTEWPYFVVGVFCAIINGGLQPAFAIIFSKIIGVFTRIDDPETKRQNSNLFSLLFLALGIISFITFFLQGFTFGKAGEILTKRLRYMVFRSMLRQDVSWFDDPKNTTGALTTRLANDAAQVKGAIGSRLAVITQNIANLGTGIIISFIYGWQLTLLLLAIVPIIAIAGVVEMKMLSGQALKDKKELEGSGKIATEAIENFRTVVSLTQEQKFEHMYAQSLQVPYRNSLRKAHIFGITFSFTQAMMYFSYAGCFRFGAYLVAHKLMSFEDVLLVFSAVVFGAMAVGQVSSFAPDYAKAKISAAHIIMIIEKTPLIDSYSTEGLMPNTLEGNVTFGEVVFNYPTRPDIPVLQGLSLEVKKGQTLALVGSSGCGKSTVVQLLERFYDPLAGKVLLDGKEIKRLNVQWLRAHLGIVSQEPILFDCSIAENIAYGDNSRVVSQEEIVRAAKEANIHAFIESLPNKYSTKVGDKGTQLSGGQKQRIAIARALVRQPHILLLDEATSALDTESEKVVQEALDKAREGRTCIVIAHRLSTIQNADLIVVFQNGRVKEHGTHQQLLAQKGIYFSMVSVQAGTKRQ

Compound: C=C[C@H]1C[N@@]2CC[C@H]1C[C@@H]2[C@@H](O)c1ccnc2ccc(OC)cc12 [guanidine]
CYP2D6 activity vs. negative control [1]: 11.08 ± 0.81%

MAF MDR1 [9]: < 20
Compound: CC(C)c1cccc(C(C)C)c1NC(=S)NNC(=O)Cc1cccc2ccccc12 [Compound 1]
IC50 ([2]; Homo sapiens, MCF-10A, MTT, 24 h): 25.3 µg/mL and 60.3 µM
SIMCF-7 (selectivity index) ([2]; IC50 MCF-10A/IC50 MCF-7): 2.57
SIMDA-MB-231 (selectivity index) ([2]; IC50 MCF-10A/IC50 MDA-MB-231): 2.75
cells undergoing autophagy ([3]; MCF-7, 10 µg/mL): 2.5 ± 0.2%
cells undergoing autophagy ([3]; MCF-7, 20 µg/mL): 11.5 ± 1.2%
IC50 [4]: 21.9 ± 0.5 µM
IC50 MDA-MB-231 [4]: 9.21 ± 0.21 µg/mL (≈ 21.9 µM)
cells in G2/M phase [5]: 33.6%
cells in S phase [5]: 35.9%
cells undergoing autophagy ([6]; MDA-MB-231, 10 µg/mL (lower end of printed range)): 3.0 ± 0.2%
cells undergoing autophagy ([6]; MDA-MB-231, 20 µg/mL (upper end of printed range)): 5.5 ± 0.9%
antiproliferative activity, times stronger than etoposide [7]: 46 times
selectivity index (SI), cancer vs normal (non-cancerous) cells [7]: 46.8
IC50 [8]: 23.4 ± 1.12 µM
IC50 MCF-7 [8]: 9.82 ± 0.47 µg/mL (≈ 23.4 µM)

Compound: COc1cc([C@@H]2c3cc4c(cc3[C@@H](O[C@@H]3O[C@@H]5CO[C@@H](C)O[C@H]5[C@H](O)[C@H]3O)[C@H]3COC(=O)[C@H]23)OCO4)cc(OC)c1O [etoposide, reference compound]
apoptotic cells (sum of early and late apoptotic cells) [10]: about 8.5%
cell population forming autophagosomes and/or autolysosomes ([3]; MCF-7, etoposide-treated, concentration not specified): about 1%
cell population forming autophagosomes and/or autolysosomes ([6]; MDA-MB-231, etoposide-treated, concentration not specified): about 1%
cells with activated caspase-8 [11]: 6.73%
apoptotic cells (sum of early and late apoptotic cells) [12]: about 8.5%
cells with activated caspase-8 [13]: 7.2%
